The values that follow come from patent US20150344444A1, “BET-PROTEIN-INHIBITING DIHYDROXYQUINOXALINONES” (BAYER PHARMA AKTIENGESELLSCHAFT, priority 2012, published 2015).

Bounds are passed on as bounds.

The subject of test [1] is MOLM-13 cells. In words: MOLM-13 cell proliferation assay (alamarBlue). It is filed as cell-based. The following applies: inhibition of cell proliferation, 96 hours, human AML cell line. The protocol:
(§1) In accordance with the invention, the ability of the substances to inhibit cell proliferation was determined Cell viability was determined by means of the alamarBlue® reagent (Invitrogen) in a Victor X3 Multilabel Reader (Perkin Elmer). The excitation wavelength was 530 nm and the emission wavelength […].
The MOLM-13 cells (DSMZ, ACC 554) were sown at a concentration of 4000 cells/well in 100 μl of growth medium (RPMI1640, 10% FCS) on 96-well microtitre plates.
(§2) After overnight incubation at 37° C., the fluorescence values were determined (CI values). Then the plates were treated with various substance dilutions (1E-5 M, 3E-6 M, 1E-6 M, 3E-7 M, 1E-7 M, 3E-8 M, 1E-8 M) and incubated at 37° C. over 96 hours (MOLM-13, B16F10 cells) or 120 hours (MOLP-8 cells). Subsequently, the fluorescence values were determined (CO values). For the data analysis, the CI values were subtracted from the CO values and the results were compared between cells which had been treated with various dilutions of the substance or only with buffer solution. The IC50 values (substance concentration needed for 50% inhibition of cell proliferation) were calculated therefrom.
MOLM-13 human AML (acute myeloid leukaemia) cell line
(In general: Resazurin is reduced to fluorescent resorufin, in cell work by metabolically active cells.)

In test [2] the test system is B16F10 cells. The experiment in a line: B16F10 cell proliferation assay (alamarBlue). It is filed as cell-based. The following applies: B16-F10; inhibition of cell proliferation, 96 hours, mouse melanoma cell line. The protocol:
as §1
The B16F10 cells (ATCC, CRL-6475) were sown at a concentration of 300-500 cells/well in 100 μl of growth medium (DMEM with phenol red, 10% FCS) on 96-well microtitre plates.
as §2
B16F10 mouse melanoma cell line

In test [3] the target is T1, BRD4 Bromo Domain 1 [BRD4(1)] (Homo sapiens, UniProt O60885).
T1 construct: N-terminally His6-tagged BRD4(1) (amino acids 67-152); made in house; host or cells: E. coli
In words: BRD4(1)/acetylated peptide H4 binding assay (TR-FRET). Conditions: inhibition of interaction between His6-tagged BRD4(1) (amino acids 67-152) and acetylated histone H4 peptide. From the text: Protein-Protein Interaction Assay: BRD4/Acetylated Peptide H4 Binding Assay
1. Assay Description for BRD4 Bromo Domain 1 [BRD4(1)]
To assess the BRD4(1) binding strength of the substances described in this application, the ability thereof to inhibit the interaction between BRD4(1) and acetylated histone H4 in a dose-dependent manner was quantified.
For this purpose, a time-resolved fluorescence resonance energy transfer (TR-FRET) assay was used, which measures the binding between N-terminally His6-tagged BRD4(1) (amino acids 67-152) and a synthetic acetylated histone H4 (Ac-H4) peptide with sequence GRGK(Ac)GGK(Ac)GLGK(Ac)GGAK(Ac)RHGSGSK-biotin. The recombinant BRD4(1) protein produced in house according to Filippakopoulos et al., Cell, 2012, 149:214-231 was expressed in E. coli and purified by means of (Ni-NTA) affinity and (Sephadex G-75) size exclusion chromatography. The Ac-H4 peptide can be purchased, for example, from Biosyntan (Berlin, Germany).
In the assay, typically 11 different concentrations of each substance (0.1 nM, 0.33 nM, 1.1 nM, 3.8 nM, 13 nM, 44 nM, 0.15 μM, 0.51 μM, 1.7 μM, 5.9 μM and 20 μM) were analysed as duplicates on the same microtitre plate. For this purpose, 100-fold concentrated solutions in DMSO were prepared by serial dilutions (1:3.4) of a 2 mM stock solution into a clear, 384-well microtitre plate (Greiner Bio-One, Frickenhausen, Germany). From this, 50 nl were transferred into a black test plate (Greiner Bio-One, Frickenhausen, Germany). The test was started by the addition of 2 μl of a 2.5-fold concentrated BRD4(1) solution (final concentration typically 10 nM in the 5 μl of reaction volume) in aqueous assay buffer [50 mM HEPES pH 7.5, 50 mM sodium chloride (NaCl), 0.25 mM CHAPS and 0.05% serum albumin (BSA)] to the substances in the test plate. This was followed by a 10-minute incubation step at 22° C. for the pre-equilibration of putative complexes between BRD4(1) and the substances.
The mixture was then incubated in the dark at 22° C. for one hour and then at 4° C. for at least 3 hours and for no longer than overnight. The formation of BRD4(1)/Ac-H4 complexes was determined by the measurement of the resonance energy transfer from the streptavidin-Eu cryptate to the anti-6His-XL665 antibody present in the reaction. For this purpose, the fluorescence emission was measured at 620 nm and 665 nm after excitation at 330-350 nm in a TR-FRET measuring instrument, for example a Rubystar or Pherastar (both from BMG Lab Technologies, Offenburg, Germany) or a Viewlux (Perkin-Elmer). The ratio of the emissions at 665 nm and at 622 nm was taken as an indicator of the amount of BRD4(1)/Ac-H4 complexes formed.
The data (ratios) obtained were normalized, with 0% inhibition corresponding to the mean from the measurements for a set of controls (typically 32 data points) in which all the reagents were present. In these, in place of test substances, 50 nl of DMSO (100%) were used Inhibition of 100% corresponded to the mean from the measurements for a set of controls (typically 32 data points) in which all the reagents except BRD4(1) were present. The IC50 was determined by regression analysis based on a 4-parameter equation (minimum, maximum, IC50, Hill; Y=max+(min−max)/(1+(X/IC50)Hill).

Take `C[C@@H]1C(=O)N(C)c2ccc(Nc3ccc(C(=O)NC4CCN(C)CC4)cc3)cc2N1Cc1c(F)cccc1F` (stereo in doubt) [Example 39, 4-{[4-(2,6-difluorobenzyl)-1,3-dimethyl-2-oxo-1,2,3,4-tetrahydroquinoxalin-6-yl]amino}-N-(1-methylpiperidin-4-yl)benzamide]: the IC50 is 2850 nM in test [1], 3280 nM in test [2] and 1040 nM in test [3].

As for `C[C@@H]1C(=O)N(C)c2ccc(Nc3ccc(C(=O)NC4CCC(N5CCN(CC6CC6)CC5)CC4)cc3)cc2N1Cc1c(F)cccc1F` (stereo in doubt) [Example 40, N-{4-[4-(cyclopropylmethyl)piperazin-1-yl]cyclohexyl}-4-{[4-(2,6-difluorobenzyl)-1,3-dimethyl-2-oxo-1,2,3,4-tetrahydroquinoxalin-6-yl]amino}benzamide], the IC50 in test [1] is greater than 10000 nM; in test [2] it was 4980 nM; in test [3] it was 1280 nM.

For `C[C@@H]1C(=O)N(C)c2ccc(Nc3ccc(C(=O)NC4CCCC4)cc3)cc2N1C1CCCC1` [Example 1, N-cyclopentyl-4-{[(3R)-4-cyclopentyl-1,3-dimethyl-2-oxo-1,2,3,4-tetrahydroquinoxalin-6-yl]amino}benzamide], the values for the 50% inhibitory concentration (IC50) in test [1], in test [2] and in test [3] were 1160 nM, 1500 nM and 173 nM, respectively.

With `C[C@@H]1C(=O)N(C)c2ccc(Nc3ccc(C(=O)NC4CC4)cc3)cc2N1C1CCCC1` [Example 2, 4-{[(3R)-4-cyclopentyl-1,3-dimethyl-2-oxo-1,2,3,4-tetrahydroquinoxalin-6-yl]amino}-N-cyclopropylbenzamide], the figures for the IC50 in test [1], in test [2] and in test [3] were 811 nM, 1690 nM and 144 nM, respectively.

As for `C[C@@H]1C(=O)N(C)c2ccc(Nc3ccc(S(=O)(=O)N(C)C)cc3)cc2N1C1CCCC1` [Example 3, 4-{[(3R)-4-cyclopentyl-1,3-dimethyl-2-oxo-1,2,3,4-tetrahydroquinoxalin-6-yl]amino}-N,N-dimethylbenzenesulphonamide], the IC50 in test [1] came to 289 nM; in test [2], 327 nM; in test [3], 63 nM.

For the molecule `C[C@@H]1C(=O)N(C)c2ccc(Nc3ccc(C(=O)N4CCOCC4)cc3)cc2N1C1CCCC1` [Example 6, (3R)-4-cyclopentyl-1,3-dimethyl-6-{[4-(morpholin-4-ylcarbonyl)phenyl]amino}-3,4-dihydroquinoxalin-2(1H)-one], the IC50 in test [1] amounted to 698 nM; in test [2], 371 nM; in test [3], 74 nM.

Take `CC(C)NC(=O)c1ccc(Nc2ccc3c(c2)N(C2CCCC2)[C@H](C)C(=O)N3C)cc1` [Example 7, 4-{[(3R)-4-cyclopentyl-1,3-dimethyl-2-oxo-1,2,3,4-tetrahydroquinoxalin-6-yl]amino}-N-isopropylbenzamide]: the IC50 in test [1] turned out to be 1440 nM; in test [2], 1020 nM; in test [3], 167 nM.

`C[C@@H]1C(=O)N(C)c2ccc(Nc3ccc(C(=O)N(C)C)cc3)cc2N1C1CCCC1` [Example 8, 4-{[(3R)-4-cyclopentyl-1,3-dimethyl-2-oxo-1,2,3,4-tetrahydroquinoxalin-6-yl]amino}-N,N-dimethylbenzamide]: the IC50 in test [1] turned out to be 627 nM; in test [2], 584 nM; in test [3], 98 nM.

For the molecule `C[C@@H]1C(=O)N(C)c2ccc(Nc3ccc(C(=O)NCC4COC4)cc3)cc2N1Cc1ccccc1` [Example 9, 4-{[(3R)-4-benzyl-1,3-dimethyl-2-oxo-1,2,3,4-tetrahydroquinoxalin-6-yl]amino}-N-(oxetan-3-ylmethyl)benzamide], the results for the half-inhibitory concentration (IC50) in test [1], in test [2] and in test [3] were 366 nM, 365 nM and 249 nM, respectively.

Turning to `C[C@@H]1C(=O)N(C)c2ccc(Nc3ccc(C(=O)NC4CC4)cc3)cc2N1Cc1ccccc1` [Example 10, 4-{[(3R)-4-benzyl-1,3-dimethyl-2-oxo-1,2,3,4-tetrahydroquinoxalin-6-yl]amino}-N-cyclopropylbenzamide], the figures for the IC50 in test [1] and in test [3] were 527 nM and 308 nM, respectively.

Regarding `C[C@@H]1C(=O)N(C)c2ccc(Nc3ccc(C(=O)NC4CCN(C)CC4)cc3)cc2N1Cc1ccccc1` [Example 11, 4-{[(3R)-4-benzyl-1,3-dimethyl-2-oxo-1,2,3,4-tetrahydroquinoxalin-6-yl]amino}-N-(1-methylpiperidin-4-yl)benzamide], the IC50 in test [1] stood at 364 nM; in test [2] it was 768 nM; in test [3], 239 nM.

Regarding `C[C@@H]1C(=O)N(C)c2ccc(Nc3ccc(C(=O)N4CCOCC4)cc3)cc2N1Cc1ccccc1` [Example 12, (3R)-4-benzyl-1,3-dimethyl-6-{[4-(morpholin-4-ylcarbonyl)phenyl]amino}-3,4-dihydroquinoxalin-2(1H)-one], the 50% inhibitory concentration (IC50) in test [1] came out at 300 nM; in test [2], 179 nM; in test [3] it was 156 nM.

Take `C[C@@H]1C(=O)N(C)c2ccc(Nc3ccc(S(=O)(=O)N4CCOCC4)cc3)cc2N1Cc1ccccc1` [Example 13, (3R)-4-benzyl-1,3-dimethyl-6-{[4-(morpholin-4-ylsulphonyl)phenyl]amino}-3,4-dihydroquinoxalin-2(1H)-one]: the IC50 in test [1] was 223 nM; in test [2] it was 136 nM; in test [3], 168 nM.

As to `C[C@@H]1C(=O)N(C)c2ccc(Nc3ccc(S(=O)(=O)N(C)C)cc3)cc2N1Cc1ccccc1` [Example 14, 4-{[(3R)-4-benzyl-1,3-dimethyl-2-oxo-1,2,3,4-tetrahydroquinoxalin-6-yl]amino}-N,N-dimethylbenzenesulphonamide], the IC50 in test [1] amounted to 233 nM; in test [2], 178 nM; in test [3], 283 nM.

For the molecule `C[C@@H]1C(=O)N(C)c2ccc(Nc3ccc(S(=O)(=O)N4CCN(C)CC4)cc3)cc2N1Cc1ccccc1` [Example 15, (3R)-4-benzyl-1,3-dimethyl-6-({4-[(4-methylpiperazin-1-yl)sulphonyl]phenyl}amino)-3,4-dihydroquinoxalin-2(1H)-one], the IC50 in test [1] amounted to 90 nM; in test [2], 224 nM; in test [3], 128 nM.

In the case of `C[C@@H]1C(=O)N(C)c2ccc(Nc3ccc(C(=O)NCC4COC4)cc3)cc2N1C1CCCCCC1` [Example 25, 4-{[(3R)-4-cycloheptyl-1,3-dimethyl-2-oxo-1,2,3,4-tetrahydroquinoxalin-6-yl]amino}-N-(oxetan-3-ylmethyl)benzamide], the IC50 came to 1360 nM in test [1] and 454 nM in test [3].

The IC50 is the concentration that gives 50% inhibition. A higher IC50 goes with weaker potency.
